Measured values reported in US20040235012A1, “Method of detecting antibiotic resistance in microorganisms” (priority 2003, published 2004).

Columns and labels:
[1] = system: low-level resistant strains (MRSA); conditions: cited from earlier work
S. aureus strains = experiment: E-Test MIC of oxacillin; assay type: cell-based; conditions: Staphylococcus aureus

Cc1onc(-c2ccccc2)c1C(=O)N[C@@H]1C(=O)N2[C@@H]1SC(C)(C)[C@@H]2C(=O)O [OX, oxacillin]
oxacillin MIC of low-level resistant strains, at or just above the susceptible breakpoint [1]: 4 to 8 µg/mL | MIC (S. aureus strains; strain 31 (mecA −, PBP2 −)): 0.25 µg/mL | MIC (S. aureus strains; strain 34 (mecA +, PBP2 +)): 16 µg/mL | MIC (S. aureus strains; strain 2325 (mecA −, PBP2 −)): 0.19 µg/mL | MIC (S. aureus strains; strain 3421 (mecA +)): > 4 µg/mL | MIC (S. aureus strains; strain 3424 (mecA −, PBP2 −)): 1.5 µg/mL | MIC (S. aureus strains; strain 3425 (mecA −, PBP2 −)): 0.38 µg/mL | MIC (S. aureus strains; strain 5594 (mecA +, PBP2 +)): 0.38 µg/mL | MIC (S. aureus strains; strain 5595 (mecA +, PBP2 +)): 0.5 µg/mL | MIC (S. aureus strains; strain 5596 (mecA +, PBP2 +)): 0.5 µg/mL | MIC (S. aureus strains; strain 5597 (mecA +, PBP2 +)): 32 µg/mL | MIC (S. aureus strains; strain 5598 (mecA +, PBP2 +)): 32 µg/mL | MIC (S. aureus strains; strain 5599 (mecA +, PBP2 +)): 16 µg/mL | MIC (S. aureus strains; strain T775 (mecA +, PBP2 +)): 8 µg/mL | MIC (S. aureus strains; strain T2109 (mecA +, PBP2 +)): 32 µg/mL | MIC (S. aureus strains; strain T2110 (mecA +, PBP2 +)): 8 µg/mL | MIC (S. aureus strains; strain T2130 (mecA +, PBP2 +)): 32 µg/mL | MIC (S. aureus strains; strain T4031 (mecA +, PBP2 +)): 6 µg/mL | MIC (S. aureus strains; strain T4033 (mecA +, PBP2 +)): 1.5 µg/mL | MIC (S. aureus strains; strain T4035 (mecA +, PBP2 +)): 8 µg/mL
